“Also recorded” adds a separate entry of the source. Like-named read-outs stand apart in the source and are kept apart here.
Experiments:
[1] = tested on: rms1-10 pea mutant plants; test: Pea shoot-branching assay by direct application on the bud, rms1-10; type: in vivo, Pisum sativum; conditions: for Length of bud at node 3 /branch: direct application, rms1-10, 10 days after treatment, mean per replicate; for Bioactivity on shoot branching inhibition (bud development): rms1-10, direct application, result in words
Description: (§1) Pea (Pisum sativum) branching mutant plants used in this study were described previously (Rameau et al., [1997]). The SL biosynthesis rms1-10 (M3T-884) and SL response rms3-4 (M2T-30) mutants were obtained from the dwarf cv. Térèse. Plants were grown in a greenhouse under long days as described by Braun et al. ([2012]).
(§2) The compounds to be tested were applied directly to the axillary bud with a micropipette as 10 μL of a solution containing 0.1% of acetone with 2% of polyethylene glycol 1,450, 50% of ethanol, and 0.4% of DMSO. The control 0 is the treatment with 0.1% of DMSO without compound. A total of 24 plants were sown per treatment in trays (2 repetitions of 12 plants). The treatment was done 8 days after sowing, on the axillary bud at node 3. The branches at nodes 1–2 were removed to encourage the outgrowth of axillary buds at nodes above. Nodes were numbered acropetally from the first scale leaf as node 1 and cotyledonary node as node 0. Bud growth at node 3 was measured 10 days after treatment. Plants with damaged main shoot apex or showing a dead white treated bud were discarded from the analysis. The SL-deficient rms1-10 pea mutant was used for all experiments and WT Térèse as control. SL-perceived rms3-4 pea mutant was used to test that when bioactive, the analog acts via RMS3, and it was also used to check the putative toxicity of probes.

[2] = tested on: rms1-10 pea mutant plants; test: Pea shoot-branching assay by vascular supply, rms1-10; type: in vivo, Pisum sativum; conditions: rms1-10, 3,000 nM
Description: as §1
The compounds to be tested were applied by vascular supply (Muñoz et al., [2021]). The control was the treatment with 0.1% of DMSO in water. A total of 12 plants were sown per treatment in trays and were treated with probes under node 3 bud generally 10 days after sowing. Compounds in DMSO solution were diluted with water to 3,000 nM for a treatment with 0.1% (v/v) DMSO. The branches at nodes 1 and 2 were removed to encourage the outgrowth of axillary buds at the nodes above. Nodes were numbered acropetally from the first scale leaf as node 1 and cotyledonary node as node 0. Bud growth at nodes 3 and 4 was measured with digital calipers 8–10 days after treatment. Plants with damaged main shoot apex or with a dead white treated-bud were discarded from the analysis. The SL-deficient rms1-10 pea mutant was used for all experiments.

[3] = tested on: Arabidopsis SL-deficient mutant max3-11; test: Hydroponic assay on Arabidopsis, rosette branches; type: in vivo, Arabidopsis thaliana; conditions: max3-11, hydroponic, 0.5 and 3 μM
Description: The hydroponic assay was adapted from the study by Cornet et al. ([2021]). Seeds were surface-sterilized for 8 min in a solution of ethanol (95%) and hypochlorite solution (10%; Bayrol, Mundolsheim, France) and were rinsed two times with ethanol (100%). Each seed was sown on top of a cut 0.5 ml Eppendorf tube filled with agar medium containing 0.65% of agar and 10% of nutritive solution of 5 mM NO3. Tubes were soaked in water and stored in the dark at 4°C for 2 days. Twelve plants per pipette tip box (13 × 9 × 7 cm) were grown and supplied with nutrient solution as in the study by Boyer et al. ([2014]) at a concentration of 5 ml/L (750 ml of solution per box). Every week, the nutrient solution was renewed and every 10 days one time, a fresh batch of treatment was added to the solution. The first treatment occurred at day 27 after sowing when plants started to bolt. The number of rosette branches was counted at day 42.

Ppccd8 mutant plants [4] = test: Physcomitrium patens bioassay, number of filaments in the dark; type: in vivo; conditions: 1 μM
Description: Assays on Physcomitrium patens were performed on plants grown in 24-well plates, starting from very small pieces of moss tissues as described by Guillory and Bonhomme ([2021]). As for pea rms1, the Ppccd8 SL synthesis mutant was used for assays, since the effect of the compounds was better seen in this mutant vs. wild type (WT; Lopez-Obando et al., [2021]). For each treatment, 24 plants were grown in PpNO3 medium [minimal medium described by Ashton et al., [1979]], dispatched in three different plates. Plants were grown for 2 weeks under control conditions, then treated with fluorophores or probes (all compounds used at 1 μM), before being placed vertically in the dark for 10 days. A single picture of each well was taken under an Axio Zoom microscope (Zeiss) with a dedicated program. Filaments were counted using ImageJ software (http://imagej.nih.gov/ij/) as described by Guillory and Bonhomme ([2021]). Twenty-four plants were tested in each treatment.

OsD14 = molecular target: T1, OsD14 (Oryza sativa subsp. japonica, UniProt Q10QA5); test: Enzymatic assay with profluorescent probes, OsD14; type: biochemical, Ozyza sativa; conditions: protein 0.33 μM, probe 10 μM
T1 construct: GST (N); made in house
T1 sequence (Q10QA5 with tags, fused parts or gaps): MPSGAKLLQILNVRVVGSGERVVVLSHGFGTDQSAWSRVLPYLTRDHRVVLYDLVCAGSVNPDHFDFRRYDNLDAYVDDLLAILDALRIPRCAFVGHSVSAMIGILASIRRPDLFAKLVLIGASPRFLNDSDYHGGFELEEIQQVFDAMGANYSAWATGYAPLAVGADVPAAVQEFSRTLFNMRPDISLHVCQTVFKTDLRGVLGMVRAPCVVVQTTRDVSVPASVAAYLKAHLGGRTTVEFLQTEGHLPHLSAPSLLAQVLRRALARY
Description: (§3) The enzyme activity was determined by measuring the release of the fluorescent intensities of each fluorophores resulting from the cleavage of profluorescent probes by RMS3, AtD14, OsD14, and DAD2 proteins in a SPARK M10 in a 96-well format (de Saint Germain et al., [2021a]). In the assay, using an Integra Viaflo 96 robot, 50 μL of a solution of protein at 0.33 μM in same buffer was added simultaneously in all 96 wells to 50 μL of profluorescent substrate solution (at varying concentrations, prepared from a 10 mM stock solution in 100% of DMSO) in PBS (100 mM of phosphate, pH 6.8, 150 mM of NaCl). After a lag time of 15 s, the formation of fluorophores was recorded over 3 h at 15 s intervals at 25°C. […] All experiments were repeated with three technical replicates. The fluorescence of each fluorophore was also determined for each measurement at the same time frame but in the absence of enzyme in order to determine the standard curves. For rapid enzymatic assays (Figure 8A, small panel), the solution of protein was added by the injector of the plate reader and then, the well was immediately read over 5 min with 1 s intervals. Same parameters were used to determine the fluorophore concentration.

ShD14 = tested on: ShD14; set-up: method as in Xu et al., 2018; conditions: ref Xu et al., 2018; cited from earlier work
rms3-4 pea mutant plants = test: Pea shoot-branching assay by direct application on the bud, rms3-4; type: in vivo, Pisum sativum; conditions: rms3-4, 10 days after treatment
Description: as §1, §2

RMS3 protein = molecular target: T2, RMS3 protein (Pisum sativum, UniProt A0A109QYD3); test: Enzymatic assay with profluorescent probes, RMS3; type: biochemical; conditions: probe 10 μM; for Cleavage kinetics by RMS3: RMS3 400 nM, 25°C, result in words; for Cleavage of probe by RMS3: protein 0.33 μM
T2 construct: GST; made in house
T2 sequence (A0A109QYD3 1-267): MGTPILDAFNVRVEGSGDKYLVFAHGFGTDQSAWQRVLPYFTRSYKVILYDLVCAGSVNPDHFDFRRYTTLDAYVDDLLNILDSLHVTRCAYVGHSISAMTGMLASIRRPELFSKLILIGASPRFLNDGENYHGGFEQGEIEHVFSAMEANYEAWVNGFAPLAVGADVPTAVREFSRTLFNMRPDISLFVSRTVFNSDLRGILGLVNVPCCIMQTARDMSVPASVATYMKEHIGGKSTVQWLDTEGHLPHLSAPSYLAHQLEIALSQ

AtD14 = molecular target: T3, AtD14 (Arabidopsis thaliana, UniProt Q9SQR3); test: Enzymatic assay with profluorescent probes, AtD14; type: biochemical; conditions: protein 0.33 μM, probe 10 μM
T3 construct: GST; made in house
T3 sequence (Q9SQR3 1-267): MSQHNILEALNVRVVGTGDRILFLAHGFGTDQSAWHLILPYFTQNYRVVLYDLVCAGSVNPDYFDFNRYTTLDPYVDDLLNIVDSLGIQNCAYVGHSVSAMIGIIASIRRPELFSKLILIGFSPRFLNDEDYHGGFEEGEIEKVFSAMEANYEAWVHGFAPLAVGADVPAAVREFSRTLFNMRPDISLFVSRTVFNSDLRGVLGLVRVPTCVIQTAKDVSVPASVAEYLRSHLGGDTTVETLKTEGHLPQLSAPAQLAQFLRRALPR
Description: as §3

DAD2 = molecular target: T4, DAD2 (Petunia hybrida, UniProt J9U5U9); test: Enzymatic assay with profluorescent probes, DAD2; type: biochemical; conditions: protein 0.33 μM, probe 10 μM
T4 construct: GST (N); made in house
T4 sequence (J9U5U9 1-267): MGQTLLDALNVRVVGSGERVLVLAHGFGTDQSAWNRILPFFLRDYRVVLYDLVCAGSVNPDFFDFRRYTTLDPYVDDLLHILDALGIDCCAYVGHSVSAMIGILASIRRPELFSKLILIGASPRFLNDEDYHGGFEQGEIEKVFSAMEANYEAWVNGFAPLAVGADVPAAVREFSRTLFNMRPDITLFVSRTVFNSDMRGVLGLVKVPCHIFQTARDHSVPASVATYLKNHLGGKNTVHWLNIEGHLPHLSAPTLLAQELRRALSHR
Description: as §3

[5] = tested on: Arabidopsis SL-deficient mutant max3-11; conditions: ref de Saint Germain et al., 2016; cited from earlier work
Ppccd8 mutant plants [6] = conditions: WT and Ppccd8; ref Hoffmann et al., 2014; Lopez-Obando et al., 2021; cited from earlier work
[7] = tested on: rms1-10 pea mutant plants; conditions: direct application, rms1-10, tested previously, ref De saint Germain et al 2016, cited from earlier work

SMILES | Length of bud at node 3 /branch ([1]; 10 nM) [mm] | Bioactivity on shoot branching inhibition (bud development) [1] | Bioactivity by vascular supply compared to the coumarin derivatives series [2] | Bioactivity on number of rosette branches [3] | Activity on filament number (Ppccd8 mutant plants [4]) | Activity on filament number, one bioassay replication (Ppccd8 mutant plants [4]; Supplementary Figure 3) | Cleavage of probe by OsD14 (OsD14) | Cleavage by ShD14 (ShD14) | Length of bud at node 3 /branch ([1]; 10,000 nM) [mm] | Length of bud at node 3 /branch (rms3-4 pea mutant plants; 1,000 nM) | Length of bud at node 3 /branch (rms3-4 pea mutant plants; 5,000 nM) | Cleavage kinetics by RMS3 (RMS3 protein) | Cleavage of probe by RMS3 (RMS3 protein) | Cleavage of probe by AtD14 (AtD14) | Cleavage of probe by DAD2 (DAD2) | Bioactivity in Arabidopsis [5] | Effect on filament number (Ppccd8 mutant plants [6]) | Affinity of the rice SL receptor suggested by cleavage profile (OsD14) | Length of bud at node 3 /branch ([7]; 1,000 nM) [mm] | Length of bud at node 3 /branch ([7]; 5,000 nM) [mm]
CCOC(=O)c1ccccc1-c1c2ccc(=O)cc-2oc2cc(OC3C=C(C)C(=O)O3)ccc12 (racemic) [(±)-YLG, reference compound] | 24.15 | inhibition of bud development; also recorded: less efficient than (±)-GR24 | lower bioactivity | not bioactive | less active | no significant bioactivity | unable to cleave | not able to cleave | – | – | – | – | – | – | – | – | – | – | – | –
CC1=CC(Oc2ccc3nc4ccc(=O)cc-4oc3c2)OC1=O (racemic) [(±)-GC93, 7-[(4-Methyl-5-Oxo-2,5-Dihydrofuran-2-yl)Oxy]-3H-Phenoxazin-3-One] | 17.73 | inhibitory effect with statistical significance only at 10 μM | lower bioactivity | not bioactive | strongest activity | – | – | – | 3.89 | – | – | – | – | – | – | – | – | – | – | –
CC1=C(C)C(Oc2c(F)cc3c(C)cc(=O)oc3c2F)OC1=O (racemic) [(±)-GC242] | – | among the most bioactive molecules | – | – | confirmed the previous activity | – | able to cleave | – | 1.77 | 35.80 | 33.76 | Two-phase cleavage kinetics; also recorded: blocked at very low concentration; also recorded: two-phase kinetic | able to cleave | able to cleave | able to cleave | previously found bioactive | dose-dependent decrease in the filament number | – | – | –
CC1=CC(Oc2c(F)cc3c(C)cc(=O)oc3c2F)OC1=O (racemic) [(±)-GC240] | – | inhibition of bud development; also recorded: less efficient than (±)-GR24 | – | – | – | – | able to cleave | – | – | – | – | Two-phase cleavage kinetics; also recorded: blocked at very low concentration | able to cleave | able to cleave | able to cleave | – | – | lower affinity | 2.52 | 2.61

Source: PMC9201908, “Expansion of the Strigolactone Profluorescent Probes Repertory: The Right Probe for the Right Application” (Frontiers in Plant Science, 2022)
